Data from patent US9011867B2, “Use of specific peptides in the preparation of a medicament for the treatment of monoclonal gammopathy of undetermined significance (MGUS) or of smoldering multiple myeloma (SMM)” (Ruprecht-Karls-Universitat Heidelberg, priority 2009, dated 2015).

Legend:
[1] = system: Melan-A analogue specific T-cells; experiment: IFN-γ ELISpot-assay with peptide pulsed T2 cells, Melan-A analogue specific T-cells as effectors; type: cell-based, human; details: for activation of Melan-A analogue specific T-cells by peptide pulsed T2 cells (IFN-γ ELISpot): T-cells from HLA-A2+ HD, ET ratio 2.5/1, FIG. 1A
[2] = system: HM1.24aa22-30-specific T-cells; experiment: IFN-γ ELISpot-assay with peptide pulsed T2 cells, HM1.24aa22-30-specific T-cells as effectors; type: cell-based, human; details: T-cells from HLA-A2+ HD; ET ratio 2.5/1; FIG. 1A

| Sequence | activation of Melan-A analogue specific T-cells by peptide pulsed T2 cells (IFN-γ ELISpot) [1] | IFN-γ production of Melan-A analogue specific T-cells activated by peptide pulsed T2 cells ([1]; T-cells from MM patient no. 10, FIG. 4B) | activation of HM1.24aa22-30-specific T-cells by peptide pulsed T2 cells (IFN-γ ELISpot) [2] |
| --- | --- | --- | --- |
| LLLGIGILV (peptide (HM 1.24)) [HM1.24aa22-30] | strong activation | produced IFN-γ | – |
| VLLGLSALL [HM1.24aa171-179] | activated neither | – | activated neither |
